Measured values as given in publication PMC9268446 (Molecules, 2022).

Legend:
EV-A71 3C^pro = EV-A71 3C^pro (Human enterovirus 71, UniProt Q66478); assay: FRET assay, inhibition of enterovirus A71 3C protease; type: biochemical
Description: (§1) We had previously shown that enterovirus 3C proteases have a substrate-binding site featuring some similarities with coronavirus main proteases, although their S2 subsite tends to be more open. Leucine is the ideal P2-amino-acid residue in M^pro substrates, whereas most 3C^pros favor Phe in this position.
(§2) Assay samples contained 59 µL of reaction buffer (20 mM HEPES, 120 mM NaCl, 0.4 mM EDTA, 20% glycerol, 4 mM DTT (freshly added before the measurements), pH 7.0, 10 µL enzyme solution (final concentration of Coxsackievirus B3 3C^pro or enterovirus A71 3C^pro: 1.0 µM).
(§3) All reactions were monitored at 37 °C for 15 min. Measurements of enzymatic activity were performed in triplicate and the value was presented as mean ± standard deviation (SD). The initial velocity of the enzymatic reaction with compounds was calculated by linear regression for the first minute of the progression curve. […] V0 is the velocity obtained for the DMSO control (inhibitor concentration of 0 µM).
(§4) […] of inhibitors (dose-response-inhibition). The IC50 values were calculated by non-linear regression (Curve fit: Y: Bottom + (Top-Bottom)/(1 + 10^ ((X-lg IC50))) using GraphPad Prism 9.0.

HCoV-NL63 M^pro = HCoV-NL63 M^pro (Human coronavirus NL63, UniProt P0C6X5); assay: biochemical
CVB3 3C^pro = CVB3 3C^pro (Coxsackievirus B3, UniProt P03313); assay: FRET assay, inhibition of Coxsackievirus B3 3C protease; type: biochemical
Description: as §1, §2, §3, §4

SARS-CoV-2 M^pro = SARS-CoV-2 M^pro (Severe acute respiratory syndrome coronavirus 2, UniProt P0DTD1); assay: FRET assay, inhibition of recombinant SARS-CoV-2 Mpro (optimized conditions); type: biochemical; details: FRET substrate Dabcyl-KTSAVLQ↓SGFRKM-E(Edans)-NH2, 50 nM enzyme, pH 7.0, 37 °C, 10 min preincubation
SARS-CoV M^pro = SARS-CoV M^pro (Severe acute respiratory syndrome coronavirus, UniProt P0C6X7); type: biochemical
[1] = inhibitor concentration not given, data not shown

HCoV-NL63 M^pro, sequence (P0C6X5 2940-3242): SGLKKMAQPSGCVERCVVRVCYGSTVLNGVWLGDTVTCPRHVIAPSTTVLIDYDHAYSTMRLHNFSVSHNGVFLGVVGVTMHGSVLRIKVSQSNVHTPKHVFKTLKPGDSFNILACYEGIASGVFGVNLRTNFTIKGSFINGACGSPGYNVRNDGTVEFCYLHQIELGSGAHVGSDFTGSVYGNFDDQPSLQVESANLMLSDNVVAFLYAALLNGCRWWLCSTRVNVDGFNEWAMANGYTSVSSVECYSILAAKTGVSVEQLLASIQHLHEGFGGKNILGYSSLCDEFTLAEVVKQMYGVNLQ
EV-A71 3C^pro, sequence (Q66478 1549-1731): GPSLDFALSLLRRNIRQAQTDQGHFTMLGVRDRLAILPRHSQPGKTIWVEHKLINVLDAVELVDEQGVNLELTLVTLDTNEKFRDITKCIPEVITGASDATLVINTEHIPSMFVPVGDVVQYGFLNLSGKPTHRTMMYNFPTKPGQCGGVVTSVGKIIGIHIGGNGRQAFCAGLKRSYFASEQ
CVB3 3C^pro, sequence (P03313 1541-1723): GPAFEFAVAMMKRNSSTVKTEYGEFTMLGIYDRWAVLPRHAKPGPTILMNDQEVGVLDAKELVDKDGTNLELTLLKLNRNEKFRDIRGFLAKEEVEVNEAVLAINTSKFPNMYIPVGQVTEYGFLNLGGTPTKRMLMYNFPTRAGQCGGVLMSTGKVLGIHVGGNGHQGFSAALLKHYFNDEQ

## CC(C)(C)NC(=O)NC(C(=O)N1CC2C(C1C(=O)NC(CC1CCNC1=O)C(=O)C(N)=O)C2(C)C)C(C)(C)C [MG-78, (1R,2S,5S)-N-((S)-4-Amino-3,4-dioxo-1-((S)-2-oxopyrrolidin-3-yl)butan2-yl)-3-((S)-2-(3-tert-butylureido)-3,3-dimethylbutanoyl)-6,6-dimethyl-3-azabicylo[3.1.0]hexane-2-carboxamide]
EV-A71 3C^pro; 10 µM FRET substrate Dabcyl-KEALFQ↓GPPQFE(-Edans)-NH2, 1.0 µM enzyme, 37 °C, read-out: IC50 against EV-A71 3C^pro
  IC50: 6700 nM
HCoV-NL63 M^pro
  Factor by which IC50 versus HCoV-NL63 M^pro is larger than that for SARS-CoV-2 M^pro: 25
  IC50: 330 nM
CVB3 3C^pro; 10 µM FRET substrate Dabcyl-KEALFQ↓GPPQFE(-Edans)-NH2, 1.0 µM enzyme, 37 °C, read-out: IC50 against CVB3 3C^pro
  IC50: 1450 nM

## CNC(=O)C(=O)[C@H](C[C@@H]1CCNC1=O)NC(=O)[C@@H]1[C@@H]2[C@H](CN1C(=O)[C@@H](NC(=O)NC(C)(C)C)C(C)(C)C)C2(C)C [MG-131, (1R,2S,5S)-3-((S)-2-(3-tert-Butylureido)-3,3-dimethylbutanoyl) -6,6-dimethyl-N-((S)-4-(methylamino)-3,4-dioxo-1-((S)-2-oxopyrrolidin-3-yl)butan-2-yl)-3-azabicyclo[3.1.0]hexane-2-carboxamide]
SARS-CoV-2 M^pro
  IC50: 14 ± 3 nM

## CC1(C)C2CN(C(=O)C=Cc3ccccc3)C(C(=O)NC(CC3CCNC3=O)C(=O)C(=O)NCc3ccccc3)C21 (centres unmarked) [XDL2a]
SARS-CoV M^pro
  Activity in SARS-CoV M^pro assay: completely inactive

## CC(C)(C)[C@H](NC(=O)C(F)(F)F)C(=O)N1C[C@H]2[C@@H]([C@H]1C(=O)N[C@H](C#N)C[C@@H]1CCNC1=O)C2(C)C [nirmatrelvir, reference compound]
EV-A71 3C^pro; [1]
  Inhibition rate against the 3C protease of EV-A71: 33%
CVB3 3C^pro; [1]
  Inhibition rate against the 3C protease of CVB3: 55%
